According to the NIST ThermoML archive (doi:10.1021/je300170y):
Numbers after ± are expanded uncertainties.

Details: Crystal 1; Chromatography

Row | Normal melting temperature [°C] | SMILES
1 | 206.00 | O=C(O)[C@H](O)[C@@H](O)C(=O)O (relative stereo) [(R*,R*)-2,3-dihydroxybutanedioic acid]
2 | 170.20 ± 1 | O=C(O)[C@H](O)[C@@H](O)C(=O)O [(2R,3R)-2,3-dihydroxybutanedioic acid]
